Among the data in patent US20190002436A1, “RESPIRATORY SYNCYTIAL VIRUS INHIBITORS” (MEDIVIR AB, priority 2015, published 2019) are EC50 values, retold here.

For the assay, the system named is RSV (Long). Description: RSV cytopathic effect (CPE)-based viral replication assay. The class given is cell-based, respiratory syncytial virus (RSV). Conditions: HEp-2 cells infected with RSV Long at MOI 0.015, 3 days at 37° C., cell viability by CellTiter-Glo luminescence, read-out: EC50 (nm). In outline:
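HEp-2 cells, 2,500 per well in DMEM with 2% heat-inactivated FBS, treated with 10-point compound dilutions and infected with RSV Long at MOI 0.015. After 3 days at 37 °C, 5% CO2, viability read by CellTiter-Glo luminescence; EC50 derived from CPE data.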
(Damage to the host cells serves as the signal in cytopathic effect assays.)

Where [1] appears, read: human respiratory syncytial virus, HEp-2, 72 h.

Like-named read-outs stand apart in the source and are kept apart here.

For the compound `CS(=O)(=O)Nc1cncc(-c2c(CN3C(=O)C4(CN(C(=O)C5(N)CC5)C4)c4ccccc43)ncc3ccccc23)c1` [Example 2006], the EC50 (commonly the concentration giving half of the maximal effect) under setting [1] was 26 nM.

On to `NC(=O)c1ccc(-c2c(CN3C(=O)C4(CCN(C(=O)C(N)C(F)(F)F)CC4)c4ccncc43)ncc3ccccc23)cn1` (stereo not drawn) [Example 2007], for which the EC50 under setting [1] was found to be 4 nM.

With `NC(=O)c1ccc(-c2c(CN3C(=O)C4(CN(C(=O)C5(N)CC5)C4)c4ccccc43)ncc3ccccc23)cn1` [Example 2008], the EC50 under setting [1] came to 15 nM.

In the case of `CS(=O)(=O)N1CCC2(CC1)C(=O)N(Cc1ncc3cc(Cl)ccc3c1-c1ccncc1)c1cnccc12` [Example 2009], under setting [1], the EC50 amounted to 0.35 nM.

Regarding `CS(=O)(=O)N1CCC2(CC1)C(=O)N(Cc1ncc3cc(F)ccc3c1-c1cncs1)c1cnccc12` [Example 2010], the 50% effective concentration (EC50) under setting [1] is 1.5 nM.

For the compound `NC(=O)c1ccc(-c2c(CN3C(=O)C4(CCN(C(=O)[C@@H]5CC(F)(F)CN5)CC4)c4ccncc43)ncc3ccccc23)cn1` [Example 2011], under setting [1], the EC50 turned out to be 21 nM.

As to `NC1(C(=O)N2CCC3(CC2)C(=O)N(Cc2ncc4ccccc4c2-c2nccs2)c2cnccc23)CC1` [Example 2012], the concentration giving a half-maximal response (EC50) under setting [1] turned out to be 380 nM.

Regarding `NC(=O)c1ccc(-c2c(CN3C(=O)C4(CCN(C(=O)[C@H]5CCCN5)CC4)c4ccncc43)ncc3ccccc23)cn1` [Example 2013], the EC50 under setting [1] stood at 6.6 nM.

Take `CS(=O)(=O)N1CCC2(CC1)C(=O)N(Cc1ncc3ccccc3c1-c1ccncc1)c1cnccc12` [Example 2014]: the concentration giving a half-maximal response (EC50) under setting [1] turned out to be 2.6 nM.

With `NC1(C(=O)N2CCC3(CC2)C(=O)N(Cc2ncc4ccccc4c2-c2ccc(S(N)(=O)=O)cc2)c2cnccc23)CC1` [Example 2015], under setting [1], the EC50 was 3.9 nM.

For the compound `NC1(C(=O)N2CCC3(CC2)C(=O)N(Cc2ncc4ccccc4c2-c2ccncc2)c2cnccc23)CC1` [Example 2016], the EC50 under setting [1] stood at 7.1 nM.

In the case of `CS(=O)(=O)N1CCC2(CC1)C(=O)N(Cc1ncc3ccccc3c1-c1cnc(C(N)=O)cn1)c1cnccc12` [Example 2017], under setting [1], the EC50 is 34 nM.

Turning to `CS(=O)(=O)N1CCC2(CC1)C(=O)N(Cc1ncc3ccccc3c1C1CNC(=O)C1)c1cnccc12` (stereo not drawn) [Example 2018], the EC50 came to 50 nM.

With `O=C1CC(c2c(Cn3c(=O)n(C4CC4)c4ccncc43)ncc3ccccc23)CN1` (stereo not drawn) [Example 2019], the EC50 turned out to be 15 nM.

Turning to `O=C1CC(c2c(Cn3c(=O)n(C4CC4)c4ccncc43)ncc3ccccc23)CN1` (stereo not drawn) [Example 2020], the EC50 worked out at 80 nM.

Regarding `NC1(C(=O)N2CCC3(CC2)C(=O)N(Cc2ncc4ccccc4c2-c2ncco2)c2cnccc23)CC1` [Example 2021], the EC50 under setting [1] came to 690 nM.

Turning to `CC1(n2c(=O)n(Cc3ncc4ccccc4c3-c3ccc(C4(N)COC4)nc3)c3cnccc32)CC1` [Example 2022], the EC50 under setting [1] stood at 19 nM.

In the case of `CS(=O)(=O)N1CCC2(CC1)C(=O)N(Cc1ncc3ccccc3c1-c1cc[nH]c1)c1cnccc12` [Example 2023], the half-maximal effective concentration (EC50) under setting [1] turned out to be 43 nM.

On to `NC1(C(=O)N2CCC3(CC2)C(=O)N(Cc2ncc4ccccc4c2-c2cncs2)c2cnccc23)CC1` [Example 2024], for which the EC50 under setting [1] was 8.2 nM.

`CS(=O)(=O)N1CCC2(CC1)C(=O)N(Cc1ncc3ccccc3c1-c1ccc(C3(N)CC3)nc1)c1cnccc12` [Example 2026]: under setting [1], the EC50 was 2.2 nM.

`NC1(C(=O)N2CCC3(CC2)C(=O)N(Cc2ncc4ccccc4c2-c2cnc(C(F)(F)F)s2)c2cnccc23)CC1` [Example 2028]: under setting [1], the 50% effective concentration (EC50) was 13 nM.

Turning to `CS(=O)(=O)N1CCC2(CC1)C(=O)N(Cc1ncc3ccccc3c1-c1cn[nH]c1)c1cnccc12` [Example 2029], under setting [1], the EC50 worked out at 2.6 nM.

For the compound `NC1(C(=O)N2CCC3(CC2)C(=O)N(Cc2ncc4ccccc4c2-c2cn[nH]c2)c2cnccc23)CC1` [Example 2030], the EC50 under setting [1] stood at 5.7 nM.

Turning to `NC1(C(=O)N2CCC3(CC2)C(=O)N(Cc2ncc4ccccc4c2-c2cc[nH]c2)c2cnccc23)CC1` [Example 2031], the EC50 under setting [1] came out at 120 nM.

Turning to `NC(=O)c1ccc(-c2c(CN3C(=O)C4(CCN(C(=O)[C@@H](N)CO)CC4)c4ccncc43)ncc3ccccc23)cn1` [Example 2032], under setting [1], the EC50 is 2.7 nM.

With `NC(=O)c1ccc(-c2c(CN3C(=O)C4(CCN(C(=O)[C@@H]5CCCN5)CC4)c4ccncc43)ncc3ccccc23)cn1` [Example 2033], the EC50 under setting [1] turned out to be 27 nM.

Regarding `CS(=O)(=O)N1CCC2(CC1)C(=O)N(Cc1ncc3cc(F)ccc3c1-c1cccnc1)c1cnccc12` [Example 2034], the concentration for a half-maximal effect (EC50) under setting [1] was 2.6 nM.

On to `CS(=O)(=O)N1CCC2(CC1)C(=O)N(Cc1ncc3cc(F)ccc3c1-c1ccncc1)c1cnccc12` [Example 2035], for which the EC50 under setting [1] is 2.8 nM.

Regarding `NC1(C(=O)N2CCC3(CC2)C(=O)N(Cc2ncc4ccccc4c2-c2ccc(OC(F)(F)F)cc2)c2cnccc23)CC1` [Example 2036], the EC50 under setting [1] came to 23 nM.

As for `NCC(N1CC2(C1)C(=O)N(Cc1ncc3ccccc3c1-c1cccnc1)c1ccccc12)C(F)(F)F` (stereo not drawn) [Example 2037], the half-maximal effective concentration (EC50) under setting [1] is 0.82 nM.

In the case of `CS(=O)(=O)N1CCC2(CC1)C(=O)N(Cc1ncc3ccccc3c1-c1ccc(C3(N)COC3)nc1)c1cnccc12` [Example 2038], the EC50 under setting [1] is 11 nM.

For `COC(=O)N1CC2(C1)C(=O)N(Cc1ncc3cc(C#N)c(F)cc3c1-c1cccnc1)c1ccccc12` [Example 2039], the concentration giving a half-maximal response (EC50) under setting [1] was 46 nM.

In the case of `NC(C(=O)N1CCC2(CC1)C(=O)N(Cc1ncc3ccccc3c1-c1cncs1)c1cnccc12)C(F)(F)F` (stereo not drawn) [Example 2040], the half-maximal effective concentration (EC50) under setting [1] is 1.9 nM.

In the case of `CS(=O)(=O)N1CCC2(CC1)C(=O)N(Cc1ncc3ccccc3c1C1CNC(=O)C1)c1cnccc12` (stereo not drawn) [Example 2041], the EC50 turned out to be 5.8 nM.

Take `NC(c1ccc(-c2c(CN3C(=O)C4(CCN(C(=O)C5(N)CC5)CC4)c4ccncc43)ncc3ccccc23)cn1)C(F)(F)F` (stereo not drawn) [Example 2042]: under setting [1], the concentration giving a half-maximal response (EC50) worked out at 22 nM.

Turning to `NC1(C(=O)N2CCC3(CC2)C(=O)N(Cc2ncc4ccccc4c2-c2cnco2)c2cnccc23)CC1` [Example 2043], the EC50 under setting [1] was found to be 40 nM.
